Assay results reported in patent publication US20100267561A1, “HERBICIDAL PYRIDAZINONE DERIVATIVES” (priority 2007, published 2010).

Columns and labels:
Experiment in all cases: Test E pre-/postemergence plant response
Type in all cases: in vivo
[1] = system: bermudagrass (Cynodon dactylon); conditions: scale 0 to 100
Outline: (§1)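 Plant response was judged by eye relative to controls, 0 meaning no effect and 100 complete control, after 14 to 21 days under greenhouse conditions. Compound was formulated in a non-phytotoxic solvent mixture with surfactant.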

[2] = system: black mustard (Brassica nigra); conditions: scale 0 to 100
Outline: as §1

[3] = system: broadleaf signalgrass (Brachiaria platyphylla); conditions: scale 0 to 100
Outline: as §1

[4] = system: common mallow (Malva sylvestris); conditions: Postemergence, scale 0 to 100
Outline: as §1

[5] = system: common purslane (Portulaca oleracea); conditions: scale 0 to 100
Outline: as §1

[6] = system: dallisgrass (Paspalum dilatatum); conditions: scale 0 to 100
Outline: as §1

[7] = system: goosegrass (Eleusine indica); conditions: scale 0 to 100
Outline: as §1

[8] = system: green foxtail (Setaria viridis); conditions: scale 0 to 100
Outline: as §1

[9] = system: guineagrass (Panicum maximum); conditions: scale 0 to 100
Outline: as §1

[10] = system: itchgrass (Rottboellia cochinchinensis); conditions: scale 0 to 100
Outline: as §1

[11] = system: large crabgrass (Digitaria sanguinalis); conditions: scale 0 to 100
Outline: as §1

[12] = system: purple nutsedge (Cyperus rotundus); conditions: scale 0 to 100
Outline: as §1

[13] = system: quackgrass (Elytrigia repens); conditions: scale 0 to 100
Outline: as §1

[14] = system: surinam grass (Brachiaria decumbens); conditions: scale 0 to 100
Outline: as §1

CCc1cc(-c2ccc(C(F)(F)F)cc2)nn1-c1c(O)cnn(C)c1=O [Compound 11, 4-[5-ethyl-3-[4-(trifluoromethyl)phenyl]-1H-pyrazol-1-yl]-5-hydroxy-2-methyl-3(2H)-pyridazinone]
Plant response rating, Bermudagrass ([1]; 4 g ai/ha, Postemergence): 10 | Plant response rating, Bermudagrass ([1]; 8 g ai/ha, Preemergence): 25 | Plant response rating, Bermudagrass ([1]; 16 g ai/ha, Preemergence): 40 | Plant response rating, Bermudagrass ([1]; 31 g ai/ha, Preemergence): 100 | Plant response rating, Bermudagrass ([1]; Postemergence, 8 g ai/ha): 35 | Plant response rating, Bermudagrass ([1]; Postemergence, 16 g ai/ha): 80 | Plant response rating, Bermudagrass ([1]; Postemergence, 31 g ai/ha): 95 | Plant response rating, Bermudagrass ([1]; Preemergence, 4 g ai/ha): 15 | Plant response rating, Mustard, Black ([2]; 4 g ai/ha, Postemergence): 0 | Plant response rating, Mustard, Black ([2]; 8 g ai/ha, Preemergence): 0 | Plant response rating, Mustard, Black ([2]; 16 g ai/ha, Preemergence): 0 | Plant response rating, Mustard, Black ([2]; 31 g ai/ha, Preemergence): 0 | Plant response rating, Mustard, Black ([2]; Postemergence, 8 g ai/ha): 0 | Plant response rating, Mustard, Black ([2]; Postemergence, 16 g ai/ha): 0 | Plant response rating, Mustard, Black ([2]; Postemergence, 31 g ai/ha): 0 | Plant response rating, Mustard, Black ([2]; Preemergence, 4 g ai/ha): 0 | Plant response rating, Signalgrass ([3]; 4 g ai/ha, Postemergence): 90 | Plant response rating, Signalgrass ([3]; 16 g ai/ha, Preemergence): 90 | Plant response rating, Signalgrass ([3]; 31 g ai/ha, Preemergence): 100 | Plant response rating, Signalgrass ([3]; Postemergence, 8 g ai/ha): 90 | Plant response rating, Signalgrass ([3]; Postemergence, 16 g ai/ha): 90 | Plant response rating, Signalgrass ([3]; Postemergence, 31 g ai/ha): 100 | Plant response rating, Signalgrass ([3]; Preemergence, 4 g ai/ha): 0 | Plant response rating, Mallow ([4]; 4 g ai/ha): 0 | Plant response rating, Mallow ([4]; 8 g ai/ha): 0 | Plant response rating, Mallow ([4]; 16 g ai/ha): 0 | Plant response rating, Mallow ([4]; 31 g ai/ha): 0 | Plant response rating, Purslane ([5]; 4 g ai/ha, Postemergence): 0 | Plant response rating, Purslane ([5]; 16 g ai/ha, Preemergence): 0 | Plant response rating, Purslane ([5]; 31 g ai/ha, Preemergence): 0 | Plant response rating, Purslane ([5]; Postemergence, 8 g ai/ha): 0 | Plant response rating, Purslane ([5]; Postemergence, 16 g ai/ha): 0 | Plant response rating, Purslane ([5]; Postemergence, 31 g ai/ha): 0 | Plant response rating, Purslane ([5]; Preemergence, 4 g ai/ha): 0 | Plant response rating, Dallisgrass ([6]; 4 g ai/ha, Postemergence): 60 | Plant response rating, Dallisgrass ([6]; 8 g ai/ha, Preemergence): 20 | Plant response rating, Dallisgrass ([6]; 16 g ai/ha, Preemergence): 35 | Plant response rating, Dallisgrass ([6]; 31 g ai/ha, Preemergence): 85 | Plant response rating, Dallisgrass ([6]; Postemergence, 8 g ai/ha): 75 | Plant response rating, Dallisgrass ([6]; Postemergence, 16 g ai/ha): 90 | Plant response rating, Dallisgrass ([6]; Postemergence, 31 g ai/ha): 90 | Plant response rating, Dallisgrass ([6]; Preemergence, 4 g ai/ha): 10 | Plant response rating, Goosegrass ([7]; 4 g ai/ha, Postemergence): 10 | Plant response rating, Goosegrass ([7]; 8 g ai/ha, Preemergence): 25 | Plant response rating, Goosegrass ([7]; 16 g ai/ha, Preemergence): 50 | Plant response rating, Goosegrass ([7]; 31 g ai/ha, Preemergence): 90 | Plant response rating, Goosegrass ([7]; Postemergence, 8 g ai/ha): 35 | Plant response rating, Goosegrass ([7]; Postemergence, 16 g ai/ha): 80 | Plant response rating, Goosegrass ([7]; Postemergence, 31 g ai/ha): 85 | Plant response rating, Goosegrass ([7]; Preemergence, 4 g ai/ha): 25 | Plant response rating, Foxtail, Green ([8]; 4 g ai/ha, Postemergence): 60 | Plant response rating, Foxtail, Green ([8]; 8 g ai/ha, Preemergence): 50 | Plant response rating, Foxtail, Green ([8]; 16 g ai/ha, Preemergence): 98 | Plant response rating, Foxtail, Green ([8]; 31 g ai/ha, Preemergence): 98 | Plant response rating, Foxtail, Green ([8]; Postemergence, 8 g ai/ha): 90 | Plant response rating, Foxtail, Green ([8]; Postemergence, 16 g ai/ha): 98 | Plant response rating, Foxtail, Green ([8]; Postemergence, 31 g ai/ha): 100 | Plant response rating, Foxtail, Green ([8]; Preemergence, 4 g ai/ha): 0 | Plant response rating, Guineagrass ([9]; 4 g ai/ha, Postemergence): 90 | Plant response rating, Guineagrass ([9]; 16 g ai/ha, Preemergence): 98 | Plant response rating, Guineagrass ([9]; 31 g ai/ha, Preemergence): 98 | Plant response rating, Guineagrass ([9]; Postemergence, 8 g ai/ha): 95 | Plant response rating, Guineagrass ([9]; Postemergence, 16 g ai/ha): 98 | Plant response rating, Guineagrass ([9]; Postemergence, 31 g ai/ha): 98 | Plant response rating, Guineagrass ([9]; Preemergence, 4 g ai/ha): 0 | Plant response rating, Itchgrass ([10]; 4 g ai/ha, Postemergence): 0 | Plant response rating, Itchgrass ([10]; 16 g ai/ha, Preemergence): 65 | Plant response rating, Itchgrass ([10]; 31 g ai/ha, Preemergence): 80 | Plant response rating, Itchgrass ([10]; Postemergence, 8 g ai/ha): 75 | Plant response rating, Itchgrass ([10]; Postemergence, 16 g ai/ha): 85 | Plant response rating, Itchgrass ([10]; Postemergence, 31 g ai/ha): 98 | Plant response rating, Itchgrass ([10]; Preemergence, 4 g ai/ha): 0 | Plant response rating, Crabgrass, Large ([11]; 4 g ai/ha, Postemergence): 60 | Plant response rating, Crabgrass, Large ([11]; 8 g ai/ha, Preemergence): 0 | Plant response rating, Crabgrass, Large ([11]; 16 g ai/ha, Preemergence): 30 | Plant response rating, Crabgrass, Large ([11]; 31 g ai/ha, Preemergence): 100 | Plant response rating, Crabgrass, Large ([11]; Postemergence, 8 g ai/ha): 70 | Plant response rating, Crabgrass, Large ([11]; Postemergence, 16 g ai/ha): 95 | Plant response rating, Crabgrass, Large ([11]; Postemergence, 31 g ai/ha): 100 | Plant response rating, Crabgrass, Large ([11]; Preemergence, 4 g ai/ha): 0 | Plant response rating, Nutsedge, Purple ([12]; 4 g ai/ha, Postemergence): 0 | Plant response rating, Nutsedge, Purple ([12]; 16 g ai/ha, Preemergence): 0 | Plant response rating, Nutsedge, Purple ([12]; 31 g ai/ha, Preemergence): 0 | Plant response rating, Nutsedge, Purple ([12]; Postemergence, 8 g ai/ha): 0 | Plant response rating, Quackgrass ([13]; 4 g ai/ha, Postemergence): 40 | Plant response rating, Quackgrass ([13]; 16 g ai/ha, Preemergence): 60 | Plant response rating, Quackgrass ([13]; 31 g ai/ha, Preemergence): 75 | Plant response rating, Quackgrass ([13]; Postemergence, 8 g ai/ha): 65 | Plant response rating, Quackgrass ([13]; Postemergence, 16 g ai/ha): 90 | Plant response rating, Quackgrass ([13]; Postemergence, 31 g ai/ha): 95 | Plant response rating, Quackgrass ([13]; Preemergence, 4 g ai/ha): 0 | Plant response rating, Surinam Grass ([14]; 4 g ai/ha, Postemergence): 25 | Plant response rating, Surinam Grass ([14]; 16 g ai/ha, Preemergence): 95 | Plant response rating, Surinam Grass ([14]; 31 g ai/ha, Preemergence): 95 | Plant response rating, Surinam Grass ([14]; Postemergence, 8 g ai/ha): 80 | Plant response rating, Surinam Grass ([14]; Postemergence, 16 g ai/ha): 100 | Plant response rating, Surinam Grass ([14]; Postemergence, 31 g ai/ha): 100 | Plant response rating, Surinam Grass ([14]; Preemergence, 4 g ai/ha): 0
